Where a name gives a salt, the structure may show the parent alone.
Tests used:
[1] = target: T1, human Adenosine A2a receptor (Homo sapiens, UniProt P29274); assay: Adenosine receptor TR-FRET binding assay (CA200645 displacement), A2a; details: 100 nM CA200645, CHO cell membranes, 2 hours at room temperature
T1 construct: expressed in transfected cells; host or cells: CHO cell membranes

[2] = target: T2, human Adenosine A2b receptor (Homo sapiens, UniProt P29275); assay: Adenosine receptor TR-FRET binding assay (CA200645 displacement), A2b; details: 30 nM CA200645, CHO cell membranes, 2 hours at room temperature
T2 construct: expressed in transfected cells; host or cells: CHO cell membranes
T2 sequence (P29275 1-332): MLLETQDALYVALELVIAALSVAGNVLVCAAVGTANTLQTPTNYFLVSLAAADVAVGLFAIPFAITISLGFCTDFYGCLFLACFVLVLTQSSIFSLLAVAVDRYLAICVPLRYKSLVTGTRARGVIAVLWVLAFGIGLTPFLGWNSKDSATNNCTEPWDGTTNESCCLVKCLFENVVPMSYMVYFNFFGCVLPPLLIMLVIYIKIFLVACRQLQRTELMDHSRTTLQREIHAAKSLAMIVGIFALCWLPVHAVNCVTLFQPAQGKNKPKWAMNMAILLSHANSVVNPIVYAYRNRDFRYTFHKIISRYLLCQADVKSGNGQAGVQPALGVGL

[3] = target: T3, human Adenosine A1 receptor (Homo sapiens, UniProt P30542); assay: Adenosine receptor TR-FRET binding assay (CA200645 displacement), A1
T3 sequence (P30542 1-326): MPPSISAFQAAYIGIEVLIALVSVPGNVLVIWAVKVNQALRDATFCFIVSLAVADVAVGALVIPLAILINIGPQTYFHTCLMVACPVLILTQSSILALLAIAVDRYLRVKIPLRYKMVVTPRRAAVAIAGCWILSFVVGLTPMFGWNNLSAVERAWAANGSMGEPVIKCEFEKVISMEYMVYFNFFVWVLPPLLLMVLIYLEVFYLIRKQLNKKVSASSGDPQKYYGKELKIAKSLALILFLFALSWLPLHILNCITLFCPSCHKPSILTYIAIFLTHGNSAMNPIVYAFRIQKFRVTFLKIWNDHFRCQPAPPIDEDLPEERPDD

[4] = target: T4, human Adenosine A3 receptor (Homo sapiens, UniProt P0DMS8); assay: Adenosine receptor TR-FRET binding assay (CA200645 displacement), A3
T4 sequence (P0DMS8 1-318): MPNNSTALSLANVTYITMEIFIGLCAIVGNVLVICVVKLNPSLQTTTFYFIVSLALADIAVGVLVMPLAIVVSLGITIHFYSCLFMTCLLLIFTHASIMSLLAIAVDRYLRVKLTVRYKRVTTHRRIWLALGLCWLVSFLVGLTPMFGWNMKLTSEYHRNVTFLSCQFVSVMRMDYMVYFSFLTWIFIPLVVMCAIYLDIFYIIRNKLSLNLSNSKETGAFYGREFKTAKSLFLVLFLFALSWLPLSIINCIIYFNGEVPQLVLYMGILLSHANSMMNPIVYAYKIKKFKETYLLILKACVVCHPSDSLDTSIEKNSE

T1 sequence (P29274 whole entry): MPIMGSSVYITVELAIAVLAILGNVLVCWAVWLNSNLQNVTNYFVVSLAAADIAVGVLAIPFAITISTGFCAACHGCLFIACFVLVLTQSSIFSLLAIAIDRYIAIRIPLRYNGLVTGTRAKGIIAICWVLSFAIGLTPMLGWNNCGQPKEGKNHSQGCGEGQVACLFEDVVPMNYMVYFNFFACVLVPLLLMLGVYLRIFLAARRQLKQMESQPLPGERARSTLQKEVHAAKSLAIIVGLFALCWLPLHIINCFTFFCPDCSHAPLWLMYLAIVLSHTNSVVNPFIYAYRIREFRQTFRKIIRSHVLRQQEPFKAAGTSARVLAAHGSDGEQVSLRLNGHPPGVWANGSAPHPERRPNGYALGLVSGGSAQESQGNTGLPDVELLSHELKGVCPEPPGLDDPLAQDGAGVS

SMILES	Ki [1] [nM]	Ki [2] [nM]	Ki [3] [nM]	Ki [4] [nM]
Cc1cc(-c2c(-c3cccc(C#N)c3)nn3ccc(N4CC5CCC(C4)N5C)nc23)cc(Cl)n1 [Example 2.2]	0.5	45	5	> 1000
CO[C@H]1CN(C)C[C@@H]1Nc1ccn2nc(-c3cccc(C#N)c3)c(-c3cc(C)nc(Cl)c3)c2n1 [Example 2.5]	0.9	1	24	> 1000
Cc1cc(-c2c(-c3cccc(C#N)c3)nn3ccc(N[C@@H]4CCOC4)nc23)cc(Cl)n1 [Example 2.6]	1	12	87	> 1000
Cc1cc(-c2c(-c3cccc(C#N)c3)nn3ccc(N4CCN(C)C(CO)C4)nc23)cc(Cl)n1 (stereo not drawn) [Example 2.7]	1.3	57	76	> 1000
Cc1cc(-c2c(-c3cccc(C#N)c3)nn3ccc(NCC(C)(C)C(=O)O)nc23)cc(Cl)n1 [Example 2.13]	71.4	1310	1390	> 1000
Cc1cc(-c2c(-c3cccc(C#N)c3)nn3ccc(NCC4CNC(=O)C4)nc23)cc(Cl)n1 (stereo not drawn) [Example 2.14]	1.5	8	29	> 1000
Cc1cc(-c2c(-c3cccc(C#N)c3)nn3ccc(NC4CN5CCC4CC5)nc23)cc(Cl)n1 (stereo not drawn) [Example 2.17]	2.4	6	45	> 1000
Cc1cc(-c2c(-c3cccc(C#N)c3)nn3ccc(NCCN4CCOCC4)nc23)cc(Cl)n1 [Example 2.19]	2.8	21	32	> 1000
Cc1cc(-c2c(-c3cccc(C#N)c3)nn3ccc(N[C@@H]4CC[C@@H]4O)nc23)cc(Cl)n1 [Example 2.22]	6.2	48	109	> 1000
Cc1cc(-c2c(-c3cccc(C#N)c3)nn3ccc(N[C@H]4CCOC4)nc23)cc(Cl)n1 [Example 2.25]	7.5	27	674	> 1000
Cc1cc(-c2c(-c3cccc(C#N)c3)nn3ccc(N4CCS(=N)(=O)CC4)nc23)cc(Cl)n1 [Example 2.26]	7.7	23	366	> 1000
Cc1cc(-c2c(-c3cccc(C#N)c3)nn3ccc(NC4CCS(=O)(=O)CC4)nc23)cc(Cl)n1 [Example 2.27]	10.7	43	317	> 1000
Cc1cc(-c2c(-c3cccc(C#N)c3)nn3ccc(NCC(N)=O)nc23)cc(Cl)n1 [Example 2.28]	11.6	2	81	> 1000
Cc1cc(-c2c(-c3cccc(C#N)c3)nn3ccc(N4CCNCC4)nc23)cc(Cl)n1 [Example 2.29]	11.8	21	124	> 1000
Cc1cc(-c2c(-c3cccc(C#N)c3)nn3ccc(NC(C)CN(C)C)nc23)cc(Cl)n1 (stereo not drawn) [Example 2.30]	15.8	55	450	> 1000
Cc1cc(-c2c(-c3cccc(C#N)c3)nn3ccc(O)nc23)cc(Cl)n1 [Example 2.31]	15.8	70	551	> 1000
Cc1cc(-c2c(-c3cccc(C#N)c3)nn3ccc(NCc4ncc[nH]4)nc23)cc(Cl)n1 [Example 2.32]	17.1	102	593	> 1000
Cc1cc(-c2c(-c3cccc(C#N)c3)nn3ccc(N4CCC4C(=O)O)nc23)cc(Cl)n1 (stereo not drawn) [Example 2.34]	22.5	163	234	> 1000

SMILES	Ki [1] [nM]	Ki [2] [nM]	Ki [3] [nM]	Ki [4] [nM]
Cc1cc(-c2c(-c3cccc(C#N)c3)nn3ccc(N4CC(C(=O)O)C4)nc23)cc(Cl)n1 [Example 2.35]	23.3	259	305	2530
Cc1cc(-c2c(-c3cccc(C#N)c3)nn3ccc(N4CC[C@@H](C(=O)O)C4)nc23)cc(Cl)n1 [Example 2.36]	25.1	430	179	> 1000
Cc1cc(-c2c(-c3cccc(C#N)c3)nn3ccc(N4CCN(S(N)(=O)=O)CC4)nc23)cc(Cl)n1 [Example 2.37]	26.5	9	1410	> 1000
Cc1cc(-c2c(-c3cccc(C#N)c3)nn3ccc(NC45CC(C(=O)O)(C4)C5)nc23)cc(Cl)n1 [Example 2.38]	45.3	346	837	> 1000
Cc1cc(-c2c(-c3cccc(C#N)c3)nn3ccc(NC4CCN(CCO)CC4)nc23)cc(Cl)n1 [Example 2.39]	1.4	2	241	> 1000
Cc1cc(-c2c(-c3cccc(C#N)c3)nn3ccc(N4CCN[C@@H](C(C)(C)O)C4)nc23)cc(Cl)n1 [Example 2.40]	5.7	23	145	> 1000
Cc1cc(-c2c(-c3cccc(C#N)c3)nn3ccc(N4CCN[C@H](C(C)(C)O)C4)nc23)cc(Cl)n1 [Example 2.41]	1.7	2	82	> 1000
Cc1cc(-c2c(-c3cccc(C#N)c3)nn3ccc(NC4CCN(C)CC4)nc23)cc(Cl)n1 [Example 2.42]	0.5	4	149	> 1000
Cc1cc(-c2c(-c3cccc(C#N)c3)nn3ccc(NC[C@@H]4COCCN4)nc23)cc(Cl)n1 [Example 4.1]	38.5	163	522	> 1000
Cc1cc(-c2c(-c3cccc(C#N)c3)nn3ccc(N[C@@H]4CCNC4)nc23)cc(Cl)n1 [Example 4.3]	1.2	3	8	> 1000
Cc1cc(-c2c(-c3cccc(C#N)c3)nn3ccc(N4C[C@@H]5NCCO[C@H]5C4)nc23)cc(Cl)n1 [Example 4.4]	3.2	149	1100	> 1000
Cc1cc(-c2c(-c3cccc(C#N)c3)nn3ccc(N[C@H]4CCNC4)nc23)cc(Cl)n1 [Example 4.6]	5.1	4	230	> 1000
Cc1cc(-c2c(-c3cccc(C#N)c3)nn3ccc(N[C@H]4CCCNC4)nc23)cc(Cl)n1 [Example 4.7]	13.9	6	213	> 1000
Cc1cc(-c2c(-c3cccc(C#N)c3)nn3ccc(N[C@H](C)[C@H](O)CO)nc23)cc(Cl)n1 [Example 4.8, 3-[3-(2-Chloro-6-methyl-4-pyridyl)-5-[[(1R,2S)-2,3-dihydroxy-1-methyl-propyl]amino]pyrazolo[1,5-a]pyrimidin-2-yl]benzonitrile]	0.5	6	7	> 1000
Cc1cc(-c2c(-c3cccc(C#N)c3)nn3ccc(N[C@@H](C)[C@H](O)CO)nc23)cc(Cl)n1 [Example 4.9, 3-[3-(2-Chloro-6-methyl-4-pyridyl)-5-[[(1S,2S)-2,3-dihydroxy-1-methyl-propyl]amino]pyrazolo[1,5-a]pyrimidin-2-yl]benzonitrile]	1.1	12	5	> 1000
Cc1cc(-c2c(-c3cccc(C#N)c3)nn3ccc(NCC(C)(C)N)nc23)cc(Cl)n1 [Example 4.10, trifluoroacetate]	3.3	12	43	> 1000
Cc1cc(-c2c(-c3cccc(C#N)c3)nn3ccc(NCC4(O)CNC4)nc23)cc(Cl)n1 [Example 4.11, 3-[3-(2-chloro-6-methyl-4-pyridyl)-5-[(3-hydroxyazetidin-3-yl)methylamino]pyrazolo[1,5-a]pyrimidin-2-yl]benzonitrile trifluoroacetate]	6.8	1	53	> 1000
Cc1cc(-c2c(-c3cccc(C#N)c3)nn3ccc(C(=O)NCCC(C)(C)O)nc23)cc(Cl)n1 [Example 5.3]	0.3	20	224	> 1000
